Assay results published in US12281363B2, “Methods for detecting antiviral-drug resistant virus” (Secretary of State for Health and Social Care, priority 2018, dated 2025).
Where two headings read alike, the source gives them in different places.

Tested on: HSV-1
Assay: Plaque reduction assay, HSV-1 clinical isolates on Vero cells
Type: cell-based
Settings: Human alphaherpesvirus 1, Vero
Source text: Viral isolates were used to infect a sub-confluent monolayer of Vero cells at a concentration of 75 or 50 plaque forming units (PFU) per well for HSV-1 and HSV-2, respectively. […] CMC medium typically used to create a semisolid interface and prevents indiscrimate viral spreading. Other materials (e.g. agar) may also be used to create this interface.
Cells were fixed with 10% formalin and stained with crystal violet before enumeration of the plaques (microscopic observation or use of fluorescent antibodies for detection is also suitable). The data obtained from these experiments were then expressed as percent inhibition of viral infectivity relative to the no drug control.
Definitions of phenotypic drug susceptibility classification as sensitive or resistant were as follows: ACV, <3 μM or >40 μM; PCV, <10 μM or >40 μM; CDV, <24 μM or >30 μM; FOS, <250 μM or >400 μM; and ACV, <6.5 μM or >40 μM; PCV, <38 μM or >40 μM; FOS, <250 μM or >400 μM for HSV-1 and HSV-2, respectively. Any IC50 values falling in between these sensitive and resistant cut-offs were reported as intermediate resistance.
The phenotype (i.e. reactivity to a drug) of the virus was characterised by the plaque reduction assay as described above.

In the case of `O=C(O)P(=O)(O)O` [Foscarnet, foscarnet], the IC50 (isolate HPG033, HSV-1 TK I358L (1072A>C), also TK T287M, read-out: Drug susceptibility (IC50 value)) is reported as 88.3 µM, the IC50 (isolate HPG033, HSV-1 TK I358L (1072A>C), also TK T287M, read-out: Drug susceptibility Foscarnet (FOS)) is reported as under 250 µM and the IC50 (isolate HPG033, HSV-1 pol N1046T (3137A>C), also TK T287M, pol A1169T, read-out: Drug susceptibility (IC50 value)) is reported as 88.3 µM. For the same compound, the IC50 (isolate HPG033, HSV-1 pol N1046T (3137A>C), also TK T287M, pol A1169T, read-out: Drug susceptibility Foscarnet (FOS)) was under 250 µM, the IC50 (isolate HPG035, HSV-1 pol S239L (716C>T), also pol S724N, read-out: Drug susceptibility (IC50 value)) was 701 µM and the IC50 (isolate HPG035, HSV-1 pol S239L (716C>T), also pol S724N, read-out: Drug susceptibility Foscarnet (FOS)) was over 400 µM. For the same compound, the IC50 (isolate HPG037, HSV-1 TK L69M (205>A), also TK Y239H, read-out: Drug susceptibility Foscarnet (FOS)) was under 250 µM, the IC50 (isolate HPG037, HSV-1 TK R256W (766C>T), read-out: Drug susceptibility (IC50 value)) was 80 µM and the IC50 (isolate HPG037, HSV-1 TK R256W (766C>T), read-out: Drug susceptibility Foscarnet (FOS)) was under 250 µM. The IC50 (isolate HPG037, HSV-1 TK Y239H (715T>C), read-out: Drug susceptibility (IC50 value)) was 80 µM, the IC50 (isolate HPG037, HSV-1 TK Y239H (715T>C), read-out: Drug susceptibility Foscarnet (FOS)) was under 250 µM and the IC50 (isolate HPG039, HSV-1 TK 85* or H58fs (169delC, 170delC, 171delC, or 172delC), read-out: Drug susceptibility (IC50 value)) was 59.8 µM. For the same compound, the IC50 (isolate HPG039, HSV-1 TK 85* or H58fs (169delC, 170delC, 171delC, or 172delC), read-out: Drug susceptibility Foscarnet (FOS)) was under 250 µM, the IC50 (isolate HPG040, HSV-1 pol S911N (2732G>A), also TK deletion (C) nt 896-900, pol A1169T, read-out: Drug susceptibility (IC50 value)) was 137 µM and the IC50 (isolate HPG040, HSV-1 pol S911N (2732G>A), also TK deletion (C) nt 896-900, pol A1169T, read-out: Drug susceptibility Foscarnet (FOS)) was under 250 µM. The IC50 (isolate HPG041, HSV-1 pol S911N (2732G>A), also pol A1169T, read-out: Drug susceptibility (IC50 value)) was 89.5 µM, the IC50 (isolate HPG041, HSV-1 pol S911N (2732G>A), also pol A1169T, read-out: Drug susceptibility Foscarnet (FOS)) was under 250 µM and the IC50 (isolate HPG042, HSV-1 pol A972V (2915C>T), also TK deletion (C) nt 881-885, pol A1169T, read-out: Drug susceptibility (IC50 value)) was 60.7 µM. It also gave an IC50 (isolate HPG042, HSV-1 pol A972V (2915C>T), also TK deletion (C) nt 881-885, pol A1169T, read-out: Drug susceptibility Foscarnet (FOS)) of under 250 µM, an IC50 (isolate HPG042, HSV-1 pol G22R (64G>A), also TK deletion (C) nt 881-885, pol A1169T, read-out: Drug susceptibility (IC50 value)) of 60.7 µM and an IC50 (isolate HPG042, HSV-1 pol G22R (64G>A), also TK deletion (C) nt 881-885, pol A1169T, read-out: Drug susceptibility Foscarnet (FOS)) of under 250 µM. It also gave an IC50 (isolate HPG043, HSV-1 TK 183* (437_438insA), read-out: Drug susceptibility (IC50 value)) of 69 µM, an IC50 (isolate HPG043, HSV-1 TK 183* (437_438insA), read-out: Drug susceptibility Foscarnet (FOS)) of under 250 µM and an IC50 (isolate HPG045, HSV-1 TK L49R (146T>G), read-out: Drug susceptibility (IC50 value)) of 75 µM. The IC50 (isolate HPG045, HSV-1 TK L49R (146T>G), read-out: Drug susceptibility Foscarnet (FOS)) was under 250 µM, the IC50 (isolate HPG045, HSV-1 pol L419I (1255C>A), also TK L49R, pol A1169T, read-out: Drug susceptibility (IC50 value)) was 75 µM and the IC50 (isolate HPG045, HSV-1 pol L419I (1255C>A), also TK L49R, pol A1169T, read-out: Drug susceptibility Foscarnet (FOS)) was under 250 µM. The IC50 (isolate HPG046, HSV-1 TK I166N (497T>A), read-out: Drug susceptibility (IC50 value)) was under 50 µM, the IC50 (isolate HPG046, HSV-1 TK I166N (497T>A), read-out: Drug susceptibility Foscarnet (FOS)) was under 250 µM and the IC50 (isolate HPG047, HSV-1 pol E680 (2039A>C), also TK deletion (C) nt 548-553, pol A1169T, read-out: Drug susceptibility Foscarnet (FOS)) was under 250 µM. The IC50 (isolate HPG050, HSV-1 TK Q34* (100C>T), read-out: Drug susceptibility (IC50 value)) was 169 µM, the IC50 (isolate HPG050, HSV-1 TK Q34* (100C>T), read-out: Drug susceptibility Foscarnet (FOS)) was under 250 µM and the IC50 (isolate HPG051, HSV-1 pol D83A (248A>C), also TK R176stop, read-out: Drug susceptibility (IC50 value)) was 82.6 µM. The IC50 (isolate HPG051, HSV-1 pol D83A (248A>C), also TK R176stop, read-out: Drug susceptibility Foscarnet (FOS)) was under 250 µM, the IC50 (isolate HPG052, HSV-1 TK Q34* (100C>T), read-out: Drug susceptibility (IC50 value)) was 76.9 µM and the IC50 (isolate HPG052, HSV-1 TK Q34* (100C>T), read-out: Drug susceptibility Foscarnet (FOS)) was under 250 µM. For the same compound, the IC50 (isolate HPG053, HSV-1 pol L802R + A834S (2405T>G, 2500G>T), also TK R176W, read-out: Drug susceptibility Foscarnet (FOS)) was over 400 µM, the IC50 (isolate HPG053, HSV-1 pol S911N (2732G>A), also TK R176W, pol A1169T, read-out: Drug susceptibility (IC50 value)) was 626 µM and the IC50 (isolate HPG053, HSV-1 pol S911N (2732G>A), also TK R176W, pol A1169T, read-out: Drug susceptibility Foscarnet (FOS)) was over 400 µM. The IC50 (isolate HPG054, HSV-1 pol E992K (2974G>A), also TK insert (G) nt 430-436, pol A1169T, read-out: Drug susceptibility (IC50 value)) was 52.9 µM, the IC50 (isolate HPG054, HSV-1 pol E992K (2974G>A), also TK insert (G) nt 430-436, pol A1169T, read-out: Drug susceptibility Foscarnet (FOS)) was under 250 µM and the IC50 (isolate HPG055, HSV-1 TK V204G (611T>G), also pol A1169AT, read-out: Drug susceptibility (IC50 value)) was under 50 µM. The IC50 (isolate HPG055, HSV-1 TK V204G (611T>G), also pol A1169AT, read-out: Drug susceptibility Foscarnet (FOS)) was under 250 µM, the IC50 (read-out: Drug susceptibility (IC50 value), isolate HPG005, HSV-1 TK A192T (574G>A)) was under 50 µM and the IC50 (read-out: Drug susceptibility (IC50 value), isolate HPG006, HSV-1 pol G121S (361G>A), also a TK resistance mutation (footnote a)) was 115 µM. The IC50 (read-out: Drug susceptibility (IC50 value), isolate HPG012, HSV-1 pol G985E (2954G>A), also TK A93V) was 92.1 µM, the IC50 (read-out: Drug susceptibility (IC50 value), isolate HPG016, HSV-1 pol A1169T (3505G>A)) was 154 µM and the IC50 (read-out: Drug susceptibility (IC50 value), isolate HPG037, HSV-1 TK L69M (205>A), also TK Y239H) was 80 µM. The IC50 (read-out: Drug susceptibility (IC50 value), isolate HPG042, HSV-1 TK frameshift (881delC to 885delC)) was 60.7 µM, the IC50 (read-out: Drug susceptibility (IC50 value), isolate HPG047, HSV-1 pol E680 (2039A>C), also TK deletion (C) nt 548-553, pol A1169T) was 92.4 µM and the IC50 (read-out: Drug susceptibility Foscarnet (FOS), isolate HPG005, HSV-1 TK A192T (574G>A)) was under 250 µM. The IC50 (read-out: Drug susceptibility Foscarnet (FOS), isolate HPG006, HSV-1 pol G121S (361G>A), also a TK resistance mutation (footnote a)) was under 250 µM, the IC50 (read-out: Drug susceptibility Foscarnet (FOS), isolate HPG012, HSV-1 pol G985E (2954G>A), also TK A93V) was under 250 µM and the IC50 (read-out: Drug susceptibility Foscarnet (FOS), isolate HPG016, HSV-1 pol A1169T (3505G>A)) was under 250 µM. For the same compound, the IC50 (read-out: Drug susceptibility Foscarnet (FOS), isolate HPG042, HSV-1 TK frameshift (881delC to 885delC)) was under 250 µM.
